Consider 4 compounds from patent US11247976B2, “Synthetic ligands that modulate the activity of the RhlR quorum sensing receptor” (Wisconsin Alumni Research Foundation, priority 2016, dated 2022).

Assay [1] deals with T1, RhlR (Pseudomonas aeruginosa, UniProt P54292).
T1 construct: expressed in transfected cells; host or cells: E. coli JLD271 (ΔsdiA) with pJN105R2 (arabinose-induced) and pSC11-rhlI*
In words: E. coli RhlR reporter agonism assay (JLD271/pJN105R2/pSC11-rhlI*). In kind it is cell-based, P. aeruginosa. Particulars: for Emax: read-out: Maximum Activation (%); for activation at 10 µM: compound at 10 μM, RhlR activity relative to 1 mM BHL.

Assay [2] deals with T1, RhlR. In words: E. coli RhlR reporter antagonism assay vs 10 μM BHL (JLD271/pJN105R2/pSC11-rhlI*). In kind it is cell-based, P. aeruginosa. Particulars: for inhibition at 10 µM: read-out: % inhibition (10 μM), compound at 10 μM in the presence of 10 μM BHL; for inhibition at 10 µM / inhibition at 1000 µM: negative = agonism stronger than 10 μM BHL alone; for inhibition at 1000 µM: read-out: % inhibition (1 mM), compound at 1 mM in the presence of 10 μM BHL.

For assay [3], the target named is T1, RhlR. In words: P. aeruginosa RhlR reporter agonism assay (PAO-JP2/prhlI-LVAgfp). In kind it is cell-based. The note with it: for Emax: read-out: Maximum Activation (%).

SMILES strings stand for the structures. “Also recorded” adds a separate entry of the source.

T1 sequence (P54292 whole entry): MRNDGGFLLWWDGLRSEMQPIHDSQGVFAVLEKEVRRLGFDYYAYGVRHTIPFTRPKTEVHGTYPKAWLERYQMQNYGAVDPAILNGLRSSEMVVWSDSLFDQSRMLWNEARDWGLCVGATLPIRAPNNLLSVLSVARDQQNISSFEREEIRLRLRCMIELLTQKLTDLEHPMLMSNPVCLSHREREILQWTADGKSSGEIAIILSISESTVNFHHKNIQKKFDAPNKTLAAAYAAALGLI

Consider `CC(C)CC(=O)N[C@H]1CCSC1=O` [RN37], for which, at RhlR [1], the EC50 (commonly the concentration at which the effect is half-maximal) worked out at 0.463 µM and the Emax was 93%. The “RhlR agonist potency in words” value at RhlR [1] (dose-response, E. coli reporter) is given as “improves potency two-fold over the homoserine lactone variant; also recorded: most potent RhlR agonist found in the E. coli reporter”. Besides, on RhlR [2], the inhibition (usually the change of the read-out against control, counted positive when it falls) at 10 µM was -59% and the inhibition at 1000 µM is -81%. Besides, on RhlR [3], the EC50 is 2.58 µM and the Emax amounted to 91%.
For the compound `O=C(COc1ccc(I)cc1)N[C@H]1CCSC1=O` [RN22], the activation at 10 µM on RhlR [1] (E. coli reporter) amounted to 1%. Besides, the “RhlR antagonist activity in words” value on RhlR [2] (E. coli reporter vs 10 μM BHL) is reported as “potent antagonist activity; also recorded: activity comparable to previously identified compound E22”. Besides, at RhlR [2] (E. coli reporter, relative to activation of 10 μM BHL alone), the “Maximum Inhibition (%)” value is given as 81%. In addition, the inhibition at 10 µM on RhlR [2] turned out to be 28%.
With `CC(C)CC(=O)N[C@H]1CCCC1=O` [RN36], on RhlR [1], the EC50 came to 7.58 µM and the Emax stood at 101%. At RhlR [1] (E. coli reporter), the activation at 10 µM is > 50%. In addition, on RhlR [2], the inhibition at 10 µM is -35% and the inhibition at 1000 µM was -122%. At RhlR [3], the midpoint of the response, the EC50, lay at 11.2 µM and the Emax was 96%.
For `O=C(N[C@H]1CCCC1=O)C1CCC1` [RN12], on RhlR [1], the EC50 was found to be 5.94 µM and the Emax came out at 93%. At RhlR [1] (E. coli reporter), the activation at 10 µM is > 50%. Moreover, on RhlR [2], the inhibition at 10 µM is -39% and the inhibition at 1000 µM is -98%. Also, on RhlR [3], the EC50 is 7.35 µM and the Emax amounted to 96%.
